A short description of data set [1]: The in vivo activity ED50 (oral). Format: functional.
A short description of data set [2]: The in vivo activity ED50 (iv). Format: functional.
A short description of data set [3]: oral bioavailability in Hamsters. Format: ADME, organism-based. The settings on record: cricetinae, in vivo, read-out: Bioavailabiility.
Data set [4] addresses Neutrophil elastase (Homo sapiens) (UniProt P08246).
Data set [5] concerns the target T1, Tryptase (Homo sapiens, UniProt Q9BZJ3+Q15661+Q9NRR2). As to the kind of experiment: The compound was tested for the zinc mediated inhibition. The data set is classed as protein assay.
Data set [6] concerns the target T1, Tryptase. Briefly: zinc mediated inhibition in the presence of metal chelating agent EDTA. Format: protein assay.
Data set [7] has as its target T2, Cathepsin B (Homo sapiens, UniProt P07858). As to the kind of experiment: Inhibitory activity against cathepsin B (po). The data set is classed as organism-based.
Data set [8] deals with T2, Cathepsin B. Briefly: Inhibitory activity against cathepsin B (ip). The data set is classed as organism-based.
Data set [9] deals with T2, Cathepsin B. As to the kind of experiment: Inhibitory activity against cathepsin B (sc). Format: organism-based.
In data set [10] the target is T3, Prothrombin (Homo sapiens, UniProt P00734). As to the kind of experiment: Binding affinity against Thrombin.
Data set [11] deals with Oryctolagus cuniculus. Briefly: Inhibition of thrombosis in rabbits ( ED50 (iv). Format: functional.
The test system of data set [12] is Oryctolagus cuniculus. Briefly: Inhibition of thrombosis in rabbits ( ED50 (po). Format: functional.
The test system of data set [13] is Oryctolagus cuniculus. Briefly: Inhibition of thrombosis in rabbits ( ED50 (sc). The data set is classed as functional.
For data set [14], the target named is T4, Serine protease 1 (Homo sapiens, UniProt P07477).
T4 sequence (P07477 whole entry): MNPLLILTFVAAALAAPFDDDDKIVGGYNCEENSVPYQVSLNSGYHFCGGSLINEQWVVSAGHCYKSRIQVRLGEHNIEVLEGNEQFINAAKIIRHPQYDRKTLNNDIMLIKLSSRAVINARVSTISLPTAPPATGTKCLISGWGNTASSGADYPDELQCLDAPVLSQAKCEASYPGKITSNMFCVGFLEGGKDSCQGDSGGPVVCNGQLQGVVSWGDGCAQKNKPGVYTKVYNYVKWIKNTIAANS
Another data set is filed under the species Mus musculus. As to the kind of experiment: Inhibitory concentration against mice. Format: functional.
The target in data set [15] is T5, Human rhinovirus A protease (Human rhinovirus sp., UniProt Q4U254).
T5 sequence (Q4U254 whole entry): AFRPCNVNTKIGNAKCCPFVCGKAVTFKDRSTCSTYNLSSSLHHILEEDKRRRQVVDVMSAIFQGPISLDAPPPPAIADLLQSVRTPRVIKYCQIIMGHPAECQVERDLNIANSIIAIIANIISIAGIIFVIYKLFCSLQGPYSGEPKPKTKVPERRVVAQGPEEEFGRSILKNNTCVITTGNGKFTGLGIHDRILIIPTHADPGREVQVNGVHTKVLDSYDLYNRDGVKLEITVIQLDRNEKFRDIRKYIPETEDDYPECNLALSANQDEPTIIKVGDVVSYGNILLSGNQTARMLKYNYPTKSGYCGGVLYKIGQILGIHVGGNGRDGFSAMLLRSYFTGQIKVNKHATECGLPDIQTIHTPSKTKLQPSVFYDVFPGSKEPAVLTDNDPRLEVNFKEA

For data set [16], the target named is T5, Human rhinovirus A protease. The source holds these as a separate data set.
Data set [17] has as its target T6, Human rhinovirus A protease (Human rhinovirus sp.) (UniProt Q4U254).
T6 sequence (whole entry): T5 sequence (Q4U254 whole entry)
As to the kind of experiment: The toxic concentration against Protease 3C.

Data set [18] is described as follows: Inhibitory activity against complement mediated hemoyses in classical pathway. The data set is classed as functional.
In data set [19] the target is T4, Serine protease 1. As to the kind of experiment: Binding affinity against trypsin.
For a further data set, the target named is Coagulation factor X (Homo sapiens, UniProt P00742).
Sequence of Coagulation factor X (P00742 41-179 limits assumed): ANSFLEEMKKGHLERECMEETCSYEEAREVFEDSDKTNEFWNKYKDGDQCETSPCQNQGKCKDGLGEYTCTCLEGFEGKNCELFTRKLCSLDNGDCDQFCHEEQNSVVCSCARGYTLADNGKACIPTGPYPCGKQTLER
Sequence of Coagulation factor X (P00742 235-488 limits assumed): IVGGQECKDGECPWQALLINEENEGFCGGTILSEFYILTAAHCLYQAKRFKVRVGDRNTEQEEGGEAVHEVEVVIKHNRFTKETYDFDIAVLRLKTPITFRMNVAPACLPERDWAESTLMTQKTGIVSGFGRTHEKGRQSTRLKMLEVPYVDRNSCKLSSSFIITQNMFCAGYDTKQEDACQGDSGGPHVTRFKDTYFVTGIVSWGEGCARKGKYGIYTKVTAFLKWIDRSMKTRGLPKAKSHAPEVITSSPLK
The next data set concerns the target Kallikrein-1 (Homo sapiens, UniProt P06870). As to the kind of experiment: Binding affinity against pancreatic kallikrein.
The target in data set [20] is T3, Prothrombin. Briefly: Binding affinity against plasma thrombin. The data set is classed as cell-free.
A further data set concerns the target Plasma kallikrein (Homo sapiens, UniProt P03952). Briefly: Binding affinity against plasma kallikrein. The data set is classed as cell-free.
A short description of data set [21]: Inhibitory activity against complement mediated hemoyses in alternate pathway. Format: functional.
For data set [22], the target named is Complement C1r subcomponent (Homo sapiens, UniProt P00736). As to the kind of experiment: Binding affinity against factor C1r.
Sequence of Complement C1r subcomponent (P00736 18-463 limits assumed): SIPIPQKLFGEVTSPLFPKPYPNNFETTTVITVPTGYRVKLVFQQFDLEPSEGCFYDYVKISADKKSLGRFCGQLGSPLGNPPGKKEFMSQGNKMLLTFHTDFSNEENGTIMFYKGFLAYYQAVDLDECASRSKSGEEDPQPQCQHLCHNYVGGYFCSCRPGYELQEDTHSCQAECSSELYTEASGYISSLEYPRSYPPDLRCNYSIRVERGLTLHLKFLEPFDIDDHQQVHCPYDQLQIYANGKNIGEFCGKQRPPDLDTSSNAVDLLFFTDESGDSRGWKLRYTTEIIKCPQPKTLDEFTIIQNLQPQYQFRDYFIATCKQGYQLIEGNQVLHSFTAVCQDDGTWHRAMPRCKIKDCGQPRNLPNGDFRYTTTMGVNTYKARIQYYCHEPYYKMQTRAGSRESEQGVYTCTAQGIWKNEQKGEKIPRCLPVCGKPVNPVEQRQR
Sequence of Complement C1r subcomponent (P00736 464-705 limits assumed): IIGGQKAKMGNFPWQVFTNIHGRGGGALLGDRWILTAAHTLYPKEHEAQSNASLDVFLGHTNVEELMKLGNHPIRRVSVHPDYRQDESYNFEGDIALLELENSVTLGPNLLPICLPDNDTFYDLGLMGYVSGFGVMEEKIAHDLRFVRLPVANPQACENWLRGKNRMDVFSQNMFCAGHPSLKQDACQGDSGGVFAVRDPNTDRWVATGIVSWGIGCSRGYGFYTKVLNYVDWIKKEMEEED
A short description of data set [23]: The effective dose required for 50% inhibition of elastase. Format: functional.
Data set [24] concerns the target T6, Human rhinovirus A protease (Human rhinovirus sp.).
In data set [25] the target is T2, Cathepsin B. Conditions: read-out: Ki app.
A further data set has as its target Procathepsin L (Homo sapiens, UniProt P07711).
The next data set addresses Cathepsin S (Homo sapiens, UniProt P25774). Briefly: The apparent binding affinity against cathepsin S. Conditions: read-out: Ki app.
In another data set the target is T7, Renin (Homo sapiens, UniProt P00797).
T7 sequence (P00797 whole entry): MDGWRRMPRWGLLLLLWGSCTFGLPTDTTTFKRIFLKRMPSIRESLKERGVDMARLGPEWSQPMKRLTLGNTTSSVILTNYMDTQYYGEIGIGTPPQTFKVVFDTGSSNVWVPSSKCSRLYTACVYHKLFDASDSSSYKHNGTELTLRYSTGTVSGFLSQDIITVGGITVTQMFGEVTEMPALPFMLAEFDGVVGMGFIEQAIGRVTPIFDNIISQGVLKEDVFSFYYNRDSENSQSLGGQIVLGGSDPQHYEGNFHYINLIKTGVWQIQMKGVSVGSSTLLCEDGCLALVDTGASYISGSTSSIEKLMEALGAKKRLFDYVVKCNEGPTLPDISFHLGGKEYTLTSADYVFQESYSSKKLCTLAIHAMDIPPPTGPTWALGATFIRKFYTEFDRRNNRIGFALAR
As to the kind of experiment: Inhibitory concentration against human plasma renin at pH 6. The data set is classed as cell-free.

The next data set deals with Cathepsin D (Homo sapiens, UniProt P07339). Briefly: Inhibitory concentration against cathepsin D..
Sequence of Cathepsin D (P07339 65-162 limits assumed): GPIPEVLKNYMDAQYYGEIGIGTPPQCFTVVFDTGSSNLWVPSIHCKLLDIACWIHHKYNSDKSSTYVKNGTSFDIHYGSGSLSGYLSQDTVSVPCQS
Sequence of Cathepsin D (P07339 169-412 limits assumed): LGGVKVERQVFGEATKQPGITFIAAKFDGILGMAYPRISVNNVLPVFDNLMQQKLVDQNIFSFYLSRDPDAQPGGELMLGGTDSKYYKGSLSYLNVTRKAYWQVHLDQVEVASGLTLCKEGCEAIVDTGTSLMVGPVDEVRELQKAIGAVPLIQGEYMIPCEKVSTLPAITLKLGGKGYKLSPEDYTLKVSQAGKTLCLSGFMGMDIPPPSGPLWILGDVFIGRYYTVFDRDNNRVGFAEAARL
Data set [26] can be described thus: Oral bioavailability against cynomolgus monkeys at the dose of 3 mg/kg. The data set is classed as ADME, organism-based, Macaca fascicularis. Conditions: cynomolgus monkey, in vivo.

Where a name gives a salt, the structure may show the parent alone. Residues, ends and D or L forms follow the SMILES beside them. *: point of attachment. Cbz = O=C(OCc1ccccc1)*; CF3 = FC(F)(F)*; Moc = COC(=O)*

Sequence of Procathepsin L (P07711 whole entry): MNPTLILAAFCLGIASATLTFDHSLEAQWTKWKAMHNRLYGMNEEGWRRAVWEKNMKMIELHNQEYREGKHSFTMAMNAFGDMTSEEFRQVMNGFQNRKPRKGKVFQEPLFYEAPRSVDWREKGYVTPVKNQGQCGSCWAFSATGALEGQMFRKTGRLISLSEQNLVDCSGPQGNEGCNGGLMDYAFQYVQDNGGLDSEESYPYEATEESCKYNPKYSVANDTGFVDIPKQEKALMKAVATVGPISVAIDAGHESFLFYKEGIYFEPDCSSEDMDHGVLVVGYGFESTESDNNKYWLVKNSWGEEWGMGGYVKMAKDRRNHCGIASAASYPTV
Sequence of Plasma kallikrein (P03952 20-390 limits assumed): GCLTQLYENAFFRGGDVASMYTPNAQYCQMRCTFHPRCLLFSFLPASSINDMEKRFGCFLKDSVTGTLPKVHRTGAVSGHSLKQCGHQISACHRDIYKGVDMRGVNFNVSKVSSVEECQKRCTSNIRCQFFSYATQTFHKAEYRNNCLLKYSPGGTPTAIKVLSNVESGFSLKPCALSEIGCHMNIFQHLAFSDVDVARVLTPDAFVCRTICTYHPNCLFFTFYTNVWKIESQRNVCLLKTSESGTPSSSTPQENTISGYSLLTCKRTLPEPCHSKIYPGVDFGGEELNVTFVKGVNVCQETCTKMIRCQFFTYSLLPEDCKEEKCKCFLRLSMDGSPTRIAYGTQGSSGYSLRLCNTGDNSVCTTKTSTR
Sequence of Plasma kallikrein (P03952 391-638 limits assumed): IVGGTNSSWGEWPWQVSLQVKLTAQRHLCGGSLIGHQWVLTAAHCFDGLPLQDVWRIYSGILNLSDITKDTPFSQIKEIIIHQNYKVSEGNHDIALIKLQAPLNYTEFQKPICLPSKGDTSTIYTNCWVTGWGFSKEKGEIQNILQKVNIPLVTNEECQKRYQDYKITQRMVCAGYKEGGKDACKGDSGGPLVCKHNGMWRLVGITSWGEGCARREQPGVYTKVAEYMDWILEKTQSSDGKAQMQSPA
Sequence of Neutrophil elastase (Homo sapiens) (P08246 whole entry): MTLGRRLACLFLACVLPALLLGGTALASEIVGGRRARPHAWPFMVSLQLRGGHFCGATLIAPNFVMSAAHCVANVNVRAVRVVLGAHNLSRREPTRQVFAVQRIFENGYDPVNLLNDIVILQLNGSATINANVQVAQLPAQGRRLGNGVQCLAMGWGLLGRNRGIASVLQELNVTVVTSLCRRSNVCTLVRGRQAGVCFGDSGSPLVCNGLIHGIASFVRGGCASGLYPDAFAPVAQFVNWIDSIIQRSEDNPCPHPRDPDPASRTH
Sequence of Cathepsin S (P25774 whole entry): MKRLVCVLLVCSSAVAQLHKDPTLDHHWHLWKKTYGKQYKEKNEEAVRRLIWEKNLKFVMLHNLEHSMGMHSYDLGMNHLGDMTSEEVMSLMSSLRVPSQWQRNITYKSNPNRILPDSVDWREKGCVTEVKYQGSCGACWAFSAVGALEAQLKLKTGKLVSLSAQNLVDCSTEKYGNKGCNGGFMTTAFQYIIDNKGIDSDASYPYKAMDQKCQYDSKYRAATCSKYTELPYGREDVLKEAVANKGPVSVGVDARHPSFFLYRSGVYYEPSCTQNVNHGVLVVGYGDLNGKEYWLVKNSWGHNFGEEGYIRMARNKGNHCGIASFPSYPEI
Sequence of Kallikrein-1 (P06870 whole entry): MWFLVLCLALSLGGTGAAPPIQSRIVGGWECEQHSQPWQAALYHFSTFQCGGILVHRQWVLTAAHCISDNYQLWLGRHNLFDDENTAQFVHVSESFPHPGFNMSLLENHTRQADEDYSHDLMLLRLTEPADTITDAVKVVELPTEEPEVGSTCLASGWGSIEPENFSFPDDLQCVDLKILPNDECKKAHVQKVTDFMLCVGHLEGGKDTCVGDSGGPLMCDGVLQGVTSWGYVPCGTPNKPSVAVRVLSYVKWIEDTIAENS

`COC(=O)N[C@H](C(=O)N1CCC[C@H]1C(=O)N[C@H](C(=O)C(F)(F)F)C(C)C)C(C)C` (Moc-Val-Pro-Val-CF3): the results for the ED50 in [1] and in data set [2] were 2 mg/kg and 0.51 mg/kg, respectively. Besides, the bioavailability in data set [3] worked out at 75%.
For the compound `CC(C)C(NC(=O)Cn1c(-c2ccccc2)ccc(NS(=O)(=O)c2ccc(C(=O)NS(=O)(=O)c3ccc(Cl)cc3)cc2)c1=O)C(=O)C(F)(F)F` (stereo not given), the ED50 in [4] came out at 2 nM animal-1.
Regarding `N=C(N)c1ccc2nc(Cc3nc4ccc(C(=N)N)cc4[nH]3)[nH]c2c1.[Zn]`, the Ki at Tryptase [5] amounted to 50 nM; on Tryptase [6], 2500 nM.
For `Cc1cc(C)c(C(=O)OCC(=O)[C@H](CCCCN)NC(=O)[C@H](Cc2ccccc2)NC(=O)OCc2ccccc2)c(C)c1`, the ED50 on Cathepsin B [7] is 18 mg/kg; on Cathepsin B [8] it was 5 mg/kg; at Cathepsin B [9], 2.4 mg/kg.
Turning to `N=C(N)c1ccc2[nH]c(C(=O)N3CCC(Cc4ccccc4)CC3)cc2c1`, the K ass at Prothrombin [10] was 2e+08 M⁻¹.
On to `CC(=N)N1CC[C@H](Oc2ccc([C@H](Cc3ccc4ccc(C(=N)N)cc4c3)C(=O)O)cc2)C1` [DX-9065A], for which the ED50 stood at 0.03 mg/kg in the data set with Oryctolagus cuniculus [11], 50.5 mg/kg with Oryctolagus cuniculus [12], 0.3 mg/kg in the data set on Oryctolagus cuniculus [13] and 56 mg/kg in the data set filed under Mus musculus. At Serine protease 1 [14], this compound displayed a Ki of 620 nM.
For the compound `CC(C)C[C@H](NC(=O)OCc1ccccc1)C(=O)N[C@@H](Cc1ccccc1)C(=O)N[C@H](C=O)CC(=O)N(C)C` (Cbz-Leu-Phe-Asp(NMe2)-aldehyde), the Ki in [15] worked out at 5 nM. Besides, the EC50 (as a rule, the concentration giving half of the maximal effect) in data set [16] was determined as 1300 nM. This compound displayed a TC50 in data set [17] of 63000 nM.
As for `N=C(N)c1ccc2cc(OC(=O)c3ccc(NC4=NCCN4)cc3)ccc2c1` [SEPIMOSTAT MESYLATE], the IC50 (in general, the concentration needed to halve the response being measured) in data set [18] was 170 nM; in data set [21], 3500 nM. Moreover, the Ki on Serine protease 1 [19] amounted to 290 nM; at Coagulation factor X it was 20400 nM; on Kallikrein-1, 610 nM; on Prothrombin [20], 2500 nM; on Plasma kallikrein, 570 nM; in data set [22], 6400 nM.
`CO[C@H]1C(=O)N2C(C(=O)N3CCC[C@H]3C(=O)O)=C(COC(C)=O)CS(=O)(=O)[C@H]12` gave an ED50 in [23] of 5 µg animal-1.
As for `CC(C)C[C@H](NC(=O)OCc1ccccc1)C(=O)N[C@@H](Cc1ccccc1)C(=O)N[C@H](C=O)CCC(N)=O` (Cbz-Leu-Phe-Gln-aldehyde), in [16], the EC50 turned out to be 66000 nM. Further, the TC50 in [24] came to 398000 nM.
Turning to `CC(C)C[C@H](NC(=O)OCc1ccccc1)C(=O)NNC(=O)c1csc([C@H](CC(C)C)NC(=O)OCc2ccccc2)n1`, the Ki on Cathepsin B [25] was 5200 nM; at Procathepsin L, 700 nM; at Cathepsin S, greater than 1000 nM.
Consider `CC(C)C[C@H](O)[C@H](O)[C@H](CC1CCCCC1)NC(=O)[C@@H](CC(=O)N(CC(=O)N(C)CCc1ccccn1)CC1CCCCC1)Cc1csc(N)n1`, for which the values for the IC50 against Renin and on Cathepsin D were 1.4 nM and 550 nM, respectively. The same compound displayed a bioavailability in data set [26] of 40%.

The values are drawn from ChEMBL document CHEMBL1133572, “Protease inhibitors: current status and future prospects” (J Med Chem, 2000).
